The results in this text go back to patent US9650399B2, “Salicylic acid derivatives, pharmaceutically acceptable salt thereof, composition thereof and method of use thereof” (The Governing Council of the University of Toronto, priority 2012, dated 2017).

In general, IC50 refers to the midpoint of a concentration-inhibition curve.

What all share (format): cell-based, human
In assay [1] the test system is BTSC30M. The assay can be described thus: alamarBlue cell viability, BTSC 30M. The following applies: Table 4 library screen, alamarBlue; for IC50: Homo sapiens, read-out: 30M IC50 (μM). The procedure:
(§1) First, the library was screened for biological activity against a set of three representative GBM BTSCs derived from GBM patients, including the very aggressive GBM BTSC lines, BTSC73M, BTSC30M, BTSC68EF. Dissociated BTSC spheres were seeded at 1500 cells/96-well and treated with drug compound or vehicle (DMSO) one day after plating. Cell viability following drug treatment was assessed after 72 hrs using the ALAMARBLUE™ assay (Invitrogen) according to the manufacturer's instructions. All culture experiments were performed in triplicate with a minimum of three wells per condition.
(§2) BTSC spheres were dissociated to single cells with the enzyme Accumax (Innovative Technologies), seeded at 1500 cells/96-well and treated with drug or vehicle (DMSO) one day after plating. […] BTSC spheres were dissociated to single cells as above and plated in 96 well plates in triplicate at 3000 cells/96-well. […] Cell viability following drug treatment was assessed three days later using the ALAMARBLUE™ assay (Invitrogen) according to the manufacturer's instructions. All culture experiments were performed in triplicate with a minimum of three wells per condition.
(In general: Alamar Blue is a resazurin reagent that responds to reducing activity.)

Assay [2] has as its system BTSC68EF. The assay can be described thus: alamarBlue cell viability, BTSC 68EF. The following applies: Table 4 library screen, alamarBlue; for IC50: Homo sapiens, read-out: 68EF IC50. On the procedure:
as §1, §2

Assay [3] has as its system BTSC73M. The assay can be described thus: alamarBlue cell viability, BTSC 73M. The following applies: Table 4 library screen, alamarBlue; for IC50: Homo sapiens, read-out: 73M IC50. On the procedure:
as §1, §2

Assay [4] has as its system 147EF. The assay can be described thus: alamarBlue cell viability, BTSC 147EF. The following applies: Table 4 library screen; for IC50: Homo sapiens. The source says: BTSC spheres were dissociated to single cells with the enzyme Accumax (Innovative Technologies), seeded at 1500 cells/96-well and treated with drug or vehicle (DMSO) one day after plating. Cytotoxicity studies were repeated independently at Sickkids Hospital using BTSC lines 25M, 67EF, 73EF, 84EF and 127EF. BTSC spheres were dissociated to single cells as above and plated in 96 well plates in triplicate at 3000 cells/96-well. In both sets of experiments drugs were used as serial dilutions within the range of 5 μM to 100 nM in the first set and 25 μM to 10 nM. Cell viability following drug treatment was assessed three days later using the ALAMARBLUE™ assay (Invitrogen) according to the manufacturer's instructions. All culture experiments were performed in triplicate with a minimum of three wells per condition. Table 4 below illustrates a screen of the library against a number of BTSCs using ALAMARBLUE™ assay.

With `CN(CC(=O)N(Cc1ccc(C2CCCCC2)cc1)c1ccc([N+](=O)[O-])cc1)S(=O)(=O)c1c(F)c(F)c(F)c(F)c1F` [Compound 8, N-(4-cyclohexylbenzyl)-N-(4-nitrophenyl)-2-(2,3,4,5,6-pentafluoro-N-methylphenylsulfonamido)acetamide], the IC50 in assay [1] came out at 0.522 µM; in assay [2], 590 nM; in assay [3], 1100 nM; in assay [4], 669 nM.
For `CN(CC(=O)N(Cc1ccc(C2CCCCC2)cc1)c1ccc(NS(=O)(=O)c2ccc3ccccc3c2)cc1)S(=O)(=O)c1c(F)c(F)c(F)c(F)c1F` [Compound 12, N-(4-cyclohexylbenzyl)-N-(4-(naphthalene-2-sulfonamido)phenyl)-2-(2,3,4,5,6-pentafluoro-N-methylphenylsulfonamido)acetamide], the “30M IC50 (μM)” value in assay [1] was “no effect”. For the same compound, the “73M IC50 (μM)” value in assay [3] is “no effect”.
Regarding `CN(CC(=O)N(Cc1ccc(C2CCCCC2)cc1)c1ccc(NS(=O)(=O)c2ccc3ncccc3c2)cc1)S(=O)(=O)c1c(F)c(F)c(F)c(F)c1F` [Compound 13, N-(4-cyclohexylbenzyl)-2-(2,3,4,5,6-pentafluoro-N-methylphenylsulfonamido)-N-(4-(quinoline-6-sulfonamido)phenyl)acetamide], in assay [1], the “30M IC50 (μM)” value is “no effect”. For the same compound, the “73M IC50 (μM)” value in assay [3] is reported as “no effect”.
On to `CN(CC(=O)N(Cc1ccc(C2CCCCC2)cc1)c1ccc(NS(C)(=O)=O)cc1)S(=O)(=O)c1c(F)c(F)c(F)c(F)c1F` [Compound 14, N-(4-cyclohexylbenzyl)-N-(4-(methylsulfonamido)phenyl)-2-(2,3,4,5,6-pentafluoro-N-methylphenylsulfonamido)acetamide], for which the results for the IC50 in assay [1], in assay [2] and in assay [3] were 0.718 µM, 806 nM and 1810 nM, respectively.
For the compound `CN(CC(=O)N(Cc1ccc(C2CCCCC2)cc1)c1ccc(NS(=O)(=O)c2cncn2C)cc1)S(=O)(=O)c1c(F)c(F)c(F)c(F)c1F` [Compound 15, N-(4-cyclohexylbenzyl)-N-(4-(1-methyl-1H-imidazole-5-sulfonamido)phenyl)-2-(2,3,4,5,6-pentafluoro-N-methylphenylsulfonamido)acetamide], in assay [1], the IC50 was found to be 0.607 µM.
With `CN(CC(=O)N(Cc1ccc(C2CCCCC2)cc1)c1ccc(NS(N)(=O)=O)cc1)S(=O)(=O)c1c(F)c(F)c(F)c(F)c1F` [Compound 16, N-(4-cyclohexylbenzyl)-2-(2,3,4,5,6-pentafluoro-N-methylphenylsulfonamido)-N-(4-(sulfamoylamino)phenyl)acetamide], the IC50 in assay [1] came to 0.95 µM; in assay [2] it was 839 nM; in assay [3], 2040 nM.
For `CCOC(=O)C(=O)Nc1ccc(N(Cc2ccc(C3CCCCC3)cc2)C(=O)CN(C)S(=O)(=O)c2c(F)c(F)c(F)c(F)c2F)cc1` [Compound 17, ethyl 2-((4-(N-(4-cyclohexylbenzyl)-2-(2,3,4,5,6-pentafluoro-N-methylphenylsulfonamido)acetamido)phenyl)amino)-2-oxoacetate] the same measures were 0.694 µM, 631 nM and 1240 nM.
As to `CCOC(=O)C(=O)Nc1ccc(N(Cc2ccc(C3CCCCC3)cc2)C(=O)CN(C)S(=O)(=O)c2ccc(C)cc2)cc1` [Compound 18, ethyl 2-((4-(N-(4-cyclohexylbenzyl)-2-(N,4-dimethylphenylsulfonamido)acetamido)phenyl)amino)-2-oxoacetate], the “30M IC50 (μM)” value in assay [1] was “no effect”. Moreover, the “73M IC50 (μM)” value in assay [3] is listed as “no effect”. Half-maximal inhibition in assay [4] (IC50) was put at 3580 nM.
In the case of `CCOP(=O)(Cc1ccc(N(Cc2ccc(C3CCCCC3)cc2)C(=O)CN(C)S(=O)(=O)c2c(F)c(F)c(F)c(F)c2F)cc1)OCC` [Compound 20, diethyl 4-(N-(4-cyclohexylbenzyl)-2-(2,3,4,5,6-pentafluoro-N-methylphenylsulfonamido)acetamido)benzylphosphonate], the values for the IC50 in assay [1] and in assay [3] were 0.664 µM and 1820 nM, respectively. Further, in assay [2], the “68EF IC50 (μM)” value is reported as “no effect”.
As for `CN(CC(=O)N(Cc1ccc(C2CCCCC2)cc1)c1ccc(CP(=O)(O)O)cc1)S(=O)(=O)c1c(F)c(F)c(F)c(F)c1F` [Compound 21, (4-(N-(4-cyclohexylbenzyl)-2-(2,3,4,5,6-pentafluoro-N-methylphenylsulfonamido)acetamido)benzyl)phosphonic acid], the “73M IC50 (μM)” value in assay [3] is listed as “no effect”.
As to `CC(=O)OCOC(=O)c1ccc(N(Cc2ccc(C3CCCCC3)cc2)C(=O)CN(C)S(=O)(=O)c2c(F)c(F)c(F)c(F)c2F)cc1` [Compound 26, acetoxymethyl 4-(N-(4-cyclohexylbenzyl)-2-(2,3,4,5,6-pentafluoro-N-methylphenylsulfonamido)acetamido)benzoate], the IC50 in assay [1] came out at 1.95 µM; in assay [3], 4340 nM.
Consider `CN(CC(=O)N(Cc1ccc(C2CCCCC2)cc1)c1ccc(NC(=O)C(=O)O)cc1)S(=O)(=O)c1c(F)c(F)c(F)c(F)c1F` [Compound 28, 2-((4-(N-(4-cyclohexylbenzyl)-2-(2,3,4,5,6-pentafluoro-N-methylphenylsulfonamido)acetamido)phenyl)amino)-2-oxoacetic acid], for which, in assay [1], the “30M IC50 (μM)” value is on record as “no effect”. The “73M IC50 (μM)” value in assay [3] is “no effect”. In addition, the “147EF IC50 (μM)” value in assay [4] is “no effect”.
As for `CN(CC(=O)N(Cc1ccc(C2CCCCC2)cc1)c1ccc(O)cc1)S(=O)(=O)c1c(F)c(F)c(F)c(F)c1F` [Compound 29, N-(4-cyclohexylbenzyl)-N-(4-hydroxphenyl)-2-(2,3,4,5,6-pentafluoro-N-methylphenylsulfonamido)acetamide], the figures for the IC50 in assay [1] and in assay [2] were 0.941 µM and 1090 nM, respectively.
In the case of `CN(CC(=O)N(Cc1ccc(C2CCCCC2)cc1)c1cccc(O)c1)S(=O)(=O)c1c(F)c(F)c(F)c(F)c1F` [Compound 30, N-(4-cyclohexylbenzyl)-N-(3-hydroxyphenyl)-2-(2,3,4,5,6-pentafluoro-N-methylphenylsulfonamido)acetamide], the IC50 in assay [1] turned out to be 0.776 µM; in assay [3], 2840 nM.
For `CN(CC(=O)N(Cc1ccc(C2CCCCC2)cc1)c1ccc(C#N)cc1)S(=O)(=O)c1c(F)c(F)c(F)c(F)c1F` [Compound 34, N-(4-cyanophenyl)-N-(4-cyclohexylbenzyl)-2-(2,3,4,5,6-pentafluoro-N-methylphenylsulfonamido)acetamide], the IC50 in assay [1] amounted to 2.23 µM. Further, the “73M IC50 (μM)” value in assay [3] is on record as “no effect”.
`CN(CC(=O)N(Cc1ccc(C2CCCCC2)cc1)c1ccc(-c2nnn[nH]2)cc1)S(=O)(=O)c1c(F)c(F)c(F)c(F)c1F` [Compound 35, N-(4-(1H-tetrazol-5-yl)phenyl)-N-(4-cyclohexylbenzyl)-2-(2,3,4,5,6-pentafluoro-N-methylphenylsulfonamido)acetamide]: the “30M IC50 (μM)” value in assay [1] is “no effect”. For the same compound, the “68EF IC50 (μM)” value in assay [2] is given as “no effect”. Also, in assay [3], the IC50 was 2770 nM.
Take `CN(CC(=O)N(Cc1ccc(C2CCCCC2)cc1)c1cc(C(=O)O)cc(C(=O)O)c1)S(=O)(=O)c1c(F)c(F)c(F)c(F)c1F` [Compound 37, 5-(N-(4-cyclohexylbenzyl)-2-(2,3,4,5,6-pentafluoro-N-methylphenylsulfonamido)acetamido)isophthalic acid]: in assay [1], the “30M IC50 (μM)” value is “no effect”. In addition, the “73M IC50 (μM)” value in assay [3] was “no effect”.
As for `COC(=O)c1ccc(N(Cc2ccc(C3CCCCC3)cc2)C(=O)CN(C)S(=O)(=O)c2c(F)c(F)c(F)c(F)c2F)cc1` [Compound 39, methyl 4-(N-(4-cyclohexylbenzyl)-2-(2,3,4,5,6-pentafluoro-N-methylphenylsulfonamido)acetamido)benzoate], the IC50 was found to be 1.09 µM in assay [1], 607 nM in assay [2] and 3320 nM in assay [3].
Turning to `CCOC(=O)c1ccc(N(Cc2ccc(C3CCCCC3)cc2)C(=O)CN(C)S(=O)(=O)c2c(F)c(F)c(F)c(F)c2F)cc1` [Compound 40, ethyl 4-(N-(4-cyclohexylbenzyl)-2-(2,3,4,5,6-pentafluoro-N-methylphenylsulfonamido)acetamido)benzoate], in assay [3], the “73M IC50 (μM)” value is given as “no effect”.
On to `Cc1ccc(S(=O)(=O)N(C)CC(=O)N(Cc2ccc(C3CCCCC3)cc2)c2ccc(NC(=O)C(=O)O)cc2)cc1` [Compound 46, 2-((4-(N-(4-cyclohexylbenzyl)-2-(N,4-dimethylphenylsulfonamido)acetamido)phenyl)amino)-2-oxoacetic acid], for which the “30M IC50 (μM)” value in assay [1] is recorded as “no effect”. Further, the “73M IC50 (μM)” value in assay [3] was “no effect”. Further, the “147EF IC50 (μM)” value in assay [4] was “no effect”.
